Test results: PubChem BioAssay AID2060509 (Molecular Pharmacology Branch, DTP, NCI, 2025)

Tested on: 485176-168-R4-J1-PDC spheroids with HUVEC/MSC, viability
Experiment: Anticancer human tumor 485176-168-R4-J1-PDC patient-derived pancreatic adenocarcinoma cell line growth inhibition [GQUAD]
Details: for IC50: curve of first compound; for viability, T/C: stronger effect = lower value; active means viability on the fitted dose curve at most 10% of control; inactive means the rest
From the text: DNA G-quadruplex Stabilizer Agents in Combinations in Complex Spheroids
A high-throughput screen of multi-cell type tumor spheroids was designed to identify active combinations of DNA G-quadruplex stabilizer agents and targeted small molecules. Complex spheroids include a stromal component modeled by human endothelial cells (HUVEC) and fibroblasts modeled by human mesenchymal stem cells (MSCs). The concentration ranges selected for each drug and investigational agent were based upon clinically achievable concentrations if the clinical Cmax of the agent was known.
Compounds. The drugs and investigational agents: pidnarulex (CX-5461; NSC782164), APTO-253 (NSC789042), BRACO-19 (NSC847499), peposertib (NSC802822), ceralasertib (NSC780249), elimusertib (NSC800525), camonsertib (NSC841442), AZD-1390 (NSC803789), olaparib (NSC753686), talazoparib (NSC767125), ART-558 (NSC835418), sotorasib (NSC818433), MRTX-1133 (NSC836407), SN-38 (NSC673596), topotecan (NSC609699), etoposide (NSC141540), doxorubicin (NSC123127), gemcitabine (NSC613327), 5-fluorouracil (NSC19893), paclitaxel (NSC125973), vemurafenib (NSC761431), panobinostat (NSC761190), R-306465 (JNJ-16241199; NSC773264), adavosertib (NSC754352), TP-3654 (NSC805149), carboplatin (NSC241240), KSQ-4279 (NSC840948), and staurosporine (NSC755774) were obtained from the National Cancer Institute (NCI) Developmental Therapeutics Program Chemical Repository (34). The FDA-approved anticancer drug set is available from the NCI Developmental Therapeutics Program. […] The stock solutions were prepared in dimethyl sulfoxide (DMSO, Sigma-Aldrich, St. Louis, MO, cat. D2650) at 800-fold the tested concentration and stored at -70 degrees C prior to their use. All drugs and investigational agents were tested over a range starting from a high concentration at or near the clinical Cmax and decreasing in half-log increments. If the clinical Cmax for an agent had not been determined, the highest concentration tested was 10 microM.
2.3 Cell Culture. All cells were maintained in an incubator at 37 degrees C and 5% CO2 with 95% humidity. The PDC lines were cultured according to standard operating procedures established by the NCI PDMR. All PDCs were thawed and cultured in Matrigel-coated flasks prepared with a working solution of 1X Ham's F-12 nutrient mix, without supplementation (Invitrogen, cat. 11765054), 100 U/mL penicillin-streptomycin (Invitrogen, cat. 15140122), and 2.5% Matrigel (Corning Inc., cat. 354248) for the first three passages. The 857933-349-R-J2-PDC line was cultured in 6C/Colon 1B media, which includes advanced DMEM/F-12 (Thermo Fisher Scientific, cat. 12634028), 10 mM HEPES (Thermo Fisher Scientific, cat. 15630080), 1X GlutaMAX supplement (Thermo Fisher Scientific, cat. 35050061), 0.1 mg/mL primocin (InvivoGen, cat. ant-pm-2), 10% defined fetal bovine serum, heat inactivated (HyClone Laboratories Inc., cat. SH30070.03HI), 50% L-WRN conditioned media (ATCC, cat. CRL-3276), 1.25 mM N-Acetyl-L-cysteine (Sigma-Aldrich, cat. A9165), 10 mM nicotinamide (Sigma-Aldrich, cat. N0636), 1X B-27 supplement (Thermo Fisher Scientific, cat. 17504044), 1X N-2 supplement (Thermo Fisher Scientific, cat. 17502048), 10 microM Y-27632 dihydrochloride (Tocris Bioscience, cat. 1254), and 50 ng/mL human EGF recombinant protein (Thermo Fisher Scientific, cat. PHG0311). The 485176-168-R4-J1-PDC line was cultured in Panc media, which includes all 6C/Colon 1B media components plus 100 ng/mL human FGF-10 (Thermo Fisher Scientific, cat. 100-26), 500 nM SB-431542 (Selleckchem, cat. S1067), and gastrin (Tocris, cat. 3006).
[…]
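Further: spheroids exposed to compounds for seven days before readout.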
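Wherever viability, T/C is given: percent viability relative to DMSO vehicle control wells as 100%.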

CC1COCCN1c1cc(C2(O)CC3CCC(C2)O3)c2cnn(-c3ccn[nH]3)c2n1 (configuration not stated) + CN(C)c1ccc(Nc2c3ccc(NC(=O)CCN4CCCC4)cc3nc3cc(NC(=O)CCN4CCCC4)ccc23)cc1
120 nM: IC50 (second compound 0.1 µM)
99.6 nM: IC50 (second compound 10 µM)
91 nM: IC50 (second compound 1 µM)
101 nM: IC50 (second compound 0.0316 µM)
125 nM: IC50 (second compound 3.16 µM)
98.5 nM: IC50 (second compound 0.316 µM)
inactive: viability, T/C (second compound 0.0316 µM, first compound 0.0316 µM) 79.4% | viability, T/C (second compound 0.0316 µM, first compound 0.1 µM) 49.7% | viability, T/C (second compound 0.0316 µM, first compound 0.316 µM) 25.9% | viability, T/C (second compound 0.0316 µM, first compound 1 µM) 9.43% | viability, T/C (second compound 0.1 µM, first compound 0.0316 µM) 66% | viability, T/C (second compound 0.1 µM, first compound 0.1 µM) 56.1% | viability, T/C (second compound 0.1 µM, first compound 0.316 µM) 16.4% | viability, T/C (second compound 0.316 µM, first compound 0.0316 µM) 70.3% | viability, T/C (second compound 0.316 µM, first compound 0.1 µM) 49.6% | viability, T/C (second compound 0.316 µM, first compound 0.316 µM) 23% | viability, T/C (second compound 0.316 µM, first compound 1 µM) 10.9% | viability, T/C (second compound 1 µM, first compound 0.0316 µM) 80.3% | viability, T/C (second compound 1 µM, first compound 0.1 µM) 47.1% | viability, T/C (second compound 1 µM, first compound 0.316 µM) 21.6% | viability, T/C (second compound 1 µM, first compound 1 µM) 9.7% | viability, T/C (second compound 3.16 µM, first compound 0.0316 µM) 72.2% | viability, T/C (second compound 3.16 µM, first compound 0.1 µM) 54.2% | viability, T/C (second compound 3.16 µM, first compound 0.316 µM) 30% | viability, T/C (second compound 3.16 µM, first compound 1 µM) 10.4% | viability, T/C (second compound 10 µM, first compound 0.0316 µM) 67.1% | viability, T/C (second compound 10 µM, first compound 0.1 µM) 50.2% | viability, T/C (second compound 10 µM, first compound 0.316 µM) 21.1% | viability, T/C (second compound 10 µM, first compound 1 µM) 11.6%
active: viability, T/C (second compound 0.0316 µM, first compound 3.16 µM) 12% | viability, T/C (second compound 0.0316 µM, first compound 10 µM) 7.83% | viability, T/C (second compound 0.1 µM, first compound 1 µM) 9.58% | viability, T/C (second compound 0.1 µM, first compound 3.16 µM) 11.2% | viability, T/C (second compound 0.1 µM, first compound 10 µM) 8.08% | viability, T/C (second compound 0.316 µM, first compound 3.16 µM) 9.72% | viability, T/C (second compound 0.316 µM, first compound 10 µM) 8.92% | viability, T/C (second compound 1 µM, first compound 3.16 µM) 10.3% | viability, T/C (second compound 1 µM, first compound 10 µM) 8.64% | viability, T/C (second compound 3.16 µM, first compound 3.16 µM) 11.8% | viability, T/C (second compound 3.16 µM, first compound 10 µM) 7.71% | viability, T/C (second compound 10 µM, first compound 3.16 µM) 9.48% | viability, T/C (second compound 10 µM, first compound 10 µM) 6.52%
